Structures can show the parent of a compound that is named as a salt.
Molecular target: T1, HCV polymerase (Hepatitis C virus genotype 1b, UniProt P26663)
T1 construct: a region encoding NS5B (J Virol 1991 March, 65(3), 1105-13, 544 amino acids after deletion of 47 amino acids on the C-terminal); 6xHis (C); made in house; host or cells: Escherichia coli
Test: biochemical
Set-up: species or system HCV BK strain
Method in brief: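 His-tagged NS5B (BK strain, 47-aa C-terminal deletion, E. coli-expressed) at 0.5 μg/ml copied 5 μg/ml run-off RNA bearing the HCV 3′ UTR with 2 μM UTP plus [3H]UTP, 50 μM ATP/GTP, in pH 7.5 Tris with 5 mM MgCl2, 25 °C, 90 min. TCA-precipitated RNA was counted and IC50 calculated.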

T1 sequence (P26663 2420-2963): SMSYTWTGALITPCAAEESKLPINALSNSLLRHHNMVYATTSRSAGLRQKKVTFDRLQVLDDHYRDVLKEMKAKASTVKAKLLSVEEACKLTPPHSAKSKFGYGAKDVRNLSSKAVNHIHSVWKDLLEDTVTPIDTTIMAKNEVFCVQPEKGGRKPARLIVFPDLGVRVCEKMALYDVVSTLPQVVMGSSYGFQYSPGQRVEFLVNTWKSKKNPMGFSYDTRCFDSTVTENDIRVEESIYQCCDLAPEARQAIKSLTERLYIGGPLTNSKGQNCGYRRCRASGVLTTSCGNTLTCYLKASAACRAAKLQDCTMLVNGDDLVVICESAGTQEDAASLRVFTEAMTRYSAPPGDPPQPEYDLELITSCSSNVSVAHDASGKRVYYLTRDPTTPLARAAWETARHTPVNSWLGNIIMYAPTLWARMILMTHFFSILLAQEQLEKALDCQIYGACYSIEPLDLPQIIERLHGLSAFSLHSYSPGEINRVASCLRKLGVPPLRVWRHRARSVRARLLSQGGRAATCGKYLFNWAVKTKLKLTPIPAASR

Row | SMILES | IC50 [nM]
1 | CCC1CCCCN1CCN1CCn2c(c(C3CCCCC3)c3ccc(C(=O)O)cc32)-c2ccc(Cl)cc21 (centres unmarked) [Example 1-334, 3-chloro-13-cyclohexyl-5-[2-(2-ethylpiperidin-1-yl)ethyl]-6,7-dihydro-5H-benzo[5,6][1,4]diazepino[7,1-a]indole-10-carboxylic acid dihydrochloride] | < 100
2 | CC[C@H]1CCCN(CCN2CCn3c(c(C4CCCCC4)c4ccc(C(=O)O)cc43)-c3ccc(Cl)cc32)C1 [Example 1-335, 3-chloro-13-cyclohexyl-5-[2-((S)-3-ethylpiperidin-1-yl)ethyl]-6,7-dihydro-5H-benzo[5,6][1,4]diazepino[7,1-a]indole-10-carboxylic acid dihydrochloride] | < 100
3 | CC[C@@H]1CCCN(CCN2CCn3c(c(C4CCCCC4)c4ccc(C(=O)O)cc43)-c3ccc(Cl)cc32)C1 [Example 1-336, 3-chloro-13-cyclohexyl-5-[2-((R)-3-ethylpiperidin-1-yl)ethyl]-6,7-dihydro-5H-benzo[5,6][1,4]diazepino[7,1-a]indole-10-carboxylic acid dihydrochloride] | < 100
4 | CC(C)c1ccc2c(c1)N(CCN1CCCCCC1)CCn1c-2c(C2CCCCC2)c2ccc(C(=O)O)cc21 [Example 1-337, 5-[2-(azepan-1-yl)ethyl]-13-cyclohexyl-3-isopropyl-6,7-dihydro-5H-benzo[5,6][1,4]diazepino[7,1-a]indole-10-carboxylic acid dihydrochloride] | < 100
5 | CCc1ccc2c(c1)N(CCN1CCCCCC1)CCn1c-2c(C2CCCCC2)c2ccc(C(=O)O)cc21 [Example 1-338, 5-[2-(azepan-1-yl)ethyl]-13-cyclohexyl-3-ethyl-6,7-dihydro-5H-benzo[5,6][1,4]diazepino[7,1-a]indole-10-carboxylic acid dihydrochloride] | < 100
6 | CCc1ccc2c(c1)N(CCN1CCCC(C)C1)CCn1c-2c(C2CCCCC2)c2ccc(C(=O)O)cc21 (centres unmarked) [Example 1-339, 13-cyclohexyl-3-ethyl-5-[2-(3-methylpiperidin-1-yl)ethyl]-6,7-dihydro-5H-benzo[5,6][1,4]diazepino[7,1-a]indole-10-carboxylic acid dihydrochloride] | < 100
7 | CC1CCCN(CCN2CCn3c(c(C4CCCCC4)c4ccc(C(=O)O)cc43)-c3ccc(C(C)C)cc32)C1 (centres unmarked) [Example 1-340, 13-cyclohexyl-3-isopropyl-5-[2-(3-methylpiperidin-1-yl)ethyl]-6,7-dihydro-5H-benzo[5,6][1,4]diazepino[7,1-a]indole-10-carboxylic acid dihydrochloride] | < 100
8 | CCC1CCCN(CCN2CCn3c(c(C4CCCCC4)c4ccc(C(=O)O)cc43)-c3ccc(C(C)C)cc32)C1 (centres unmarked) [Example 1-341, 13-cyclohexyl-5-[2-(3-ethylpiperidin-1-yl)ethyl]-3-isopropyl-6,7-dihydro-5H-benzo[5,6][1,4]diazepino[7,1-a]indole-10-carboxylic acid dihydrochloride] | < 100
9 | O=C(O)c1ccc2c(C3CCCCC3)c3n(c2c1)CCN(CCC1CCCN(C2CC2)C1)c1cc(Cl)ccc1-3 (centres unmarked) [Example 1-342, 3-chloro-13-cyclohexyl-5-[2-(1-cyclopropylpiperidin-3-yl)ethyl]-6,7-dihydro-5H-benzo[5,6][1,4]diazepino[7,1-a]indole-10-carboxylic acid dihydrochloride] | < 100
10 | CCCc1ccc2c(c1)N(CCN1CCCCC1)CCn1c-2c(C2CCCCC2)c2ccc(C(=O)O)cc21 [Example 1-343, 13-cyclohexyl-5-[2-(piperidin-1-yl)ethyl]-3-propyl-6,7-dihydro-5H-benzo[5,6][1,4]diazepino[7,1-a]indole-10-carboxylic acid dihydrochloride] | < 100
11 | Cc1cc(COc2ccc3c(c2)N(CC[N+](C)(C)Cc2cc(C)on2)CCn2c-3c(C3CCCCC3)c3ccc(C(=O)O)cc32)no1 [Example 1-344, N-{2-[10-carboxy-13-cyclohexyl-3-(5-methylisoxazol-3-ylmethoxy)-6,7-dihydro-benzo[5,6][1,4]diazepino[7,1-a]indol-5-yl]ethyl}-N,N-dimethyl-N-(5-methylisoxazol-3-ylmethyl)ammonium chloride monohydrochloride] | < 100
12 | CCOc1ccc2c(c1)N(CCN1CCCC(C)C1)CCn1c-2c(C2CCCCC2)c2ccc(C(=O)O)cc21 (centres unmarked) [Example 1-345, 13-cyclohexyl-3-ethoxy-5-[2-(3-methylpiperidin-1-yl)ethyl]-6,7-dihydro-5H-benzo[5,6][1,4]diazepino[7,1-a]indole-10-carboxylic acid dihydrochloride] | < 100
13 | CCCc1ccc2c(c1)N(CCN1CCCC(COC)C1)CCn1c-2c(C2CCCCC2)c2ccc(C(=O)O)cc21 (centres unmarked) [Example 1-346, 13-cyclohexyl-5-[2-(3-methoxymethylpiperidin-1-yl)ethyl]-3-propyl-6,7-dihydro-5H-benzo[5,6][1,4]diazepino[7,1-a]indole-10-carboxylic acid dihydrochloride] | < 100
14 | CCOc1ccc2c(c1)N(CCN1CCCC(CC)C1)CCn1c-2c(C2CCCCC2)c2ccc(C(=O)O)cc21 (centres unmarked) [Example 1-347, 13-cyclohexyl-3-ethoxy-5-[2-(3-ethylpiperidin-1-yl)ethyl]-6,7-dihydro-5H-benzo[5,6][1,4]diazepino[7,1-a]indole-10-carboxylic acid dihydrochloride] | < 100
15 | CCC1CCCN(CCN2CCn3c(c(C4CCCCC4)c4ccc(C(=O)O)cc43)-c3ccc(OCc4ccccc4)cc32)C1 (centres unmarked) [Example 1-348, 3-benzyloxy-13-cyclohexyl-5-[2-(3-ethylpiperidin-1-yl)ethyl]-6,7-dihydro-5H-benzo[5,6][1,4]diazepino[7,1-a]indole-10-carboxylic acid dihydrochloride] | < 100
16 | CCOc1ccc2c(c1)N(CCC1CCCN(C(C)C)C1)CCn1c-2c(C2CCCCC2)c2ccc(C(=O)O)cc21 (centres unmarked) [Example 1-349, 13-cyclohexyl-3-ethoxy-5-[2-(1-isopropylpiperidin-3-yl)ethyl]-6,7-dihydro-5H-benzo[5,6][1,4]diazepino[7,1-a]indole-10-carboxylic acid dihydrochloride] | < 100
17 | CCc1ccc2c(c1)N(CCN1CCCC(CC)C1)CCn1c-2c(C2CCCCC2)c2ccc(C(=O)O)cc21 (centres unmarked) [Example 1-350, 13-cyclohexyl-3-ethyl-5-[2-(3-ethylpiperidin-1-yl)ethyl]-6,7-dihydro-5H-benzo[5,6][1,4]diazepino[7,1-a]indole-10-carboxylic acid dihydrochloride] | < 100
18 | CC(C)C1CCCN(CCN2CCn3c(c(C4CCCCC4)c4ccc(C(=O)O)cc43)-c3ccc(Cl)cc32)C1 (centres unmarked) [Example 1-351, 3-chloro-13-cyclohexyl-5-[2-(3-isopropylpiperidin-1-yl)ethyl]-6,7-dihydro-5H-benzo[5,6][1,4]diazepino[7,1-a]indole-10-carboxylic acid dihydrochloride] | < 100
19 | COCC1CCCN(CCCN2CCn3c(c(C4CCCCC4)c4ccc(C(=O)O)cc43)-c3ccc(Cl)cc32)C1 (centres unmarked) [Example 1-352, 3-chloro-13-cyclohexyl-5-[3-(3-methoxymethylpiperidin-1-yl)propyl]-6,7-dihydro-5H-benzo[5,6][1,4]diazepino[7,1-a]indole-10-carboxylic acid monohydrochloride] | < 100
20 | CCC1CCCCN1CCCN1CCn2c(c(C3CCCCC3)c3ccc(C(=O)O)cc32)-c2ccc(Cl)cc21 (centres unmarked) [Example 1-353, 3-chloro-13-cyclohexyl-5-[3-(2-ethylpiperidin-1-yl)propyl]-6,7-dihydro-5H-benzo[5,6][1,4]diazepino[7,1-a]indole-10-carboxylic acid dihydrochloride] | < 100
21 | CCCc1ccc2c(c1)N(CCC1CCCN(C(C)C)C1)CCn1c-2c(C2CCCCC2)c2ccc(C(=O)O)cc21 (centres unmarked) [Example 1-354, 13-cyclohexyl-5-[2-(1-isopropylpiperidin-3-yl)ethyl]-3-propyl-6,7-dihydro-5H-benzo[5,6][1,4]diazepino[7,1-a]indole-10-carboxylic acid dihydrochloride] | < 100
22 | COCC1CCCCN1CCCN1CCn2c(c(C3CCCCC3)c3ccc(C(=O)O)cc32)-c2ccc(Cl)cc21 (centres unmarked) [Example 1-355, 3-chloro-13-cyclohexyl-5-[3-(2-methoxymethylpiperidin-1-yl)propyl]-6,7-dihydro-5H-benzo[5,6][1,4]diazepino[7,1-a]indole-10-carboxylic acid dihydrochloride] | < 100
23 | CCCc1ccc2c(c1)N(CCN1CCCC(C)C1)CCn1c-2c(C2CCCCC2)c2ccc(C(=O)O)cc21 (centres unmarked) [Example 1-356, 13-cyclohexyl-5-[2-(3-methylpiperidin-1-yl)ethyl]-3-propyl-6,7-dihydro-5H-benzo[5,6][1,4]diazepino[7,1-a]indole-10-carboxylic acid dihydrochloride] | < 100
24 | CCCc1ccc2c(c1)N(CCN1CCCC(CC)C1)CCn1c-2c(C2CCCCC2)c2ccc(C(=O)O)cc21 (centres unmarked) [Example 1-357, 13-cyclohexyl-5-[2-(3-ethylpiperidin-1-yl)ethyl]-3-propyl-6,7-dihydro-5H-benzo[5,6][1,4]diazepino[7,1-a]indole-10-carboxylic acid dihydrochloride] | < 100
25 | COCC1CCCN(CCN2CCn3c(c(C4CCCCC4)c4ccc(C(=O)O)cc43)-c3ccc(OCc4ccccc4)cc32)C1 (centres unmarked) [Example 1-358, 3-benzyloxy-13-cyclohexyl-5-[2-(3-methoxymethylpiperidin-1-yl)ethyl]-6,7-dihydro-5H-benzo[5,6][1,4]diazepino[7,1-a]indole-10-carboxylic acid dihydrochloride] | < 100
26 | CC(C)c1ccc2c(c1)N(CCN1CCCC1)CCn1c-2c(C2CCCCC2)c2ccc(C(=O)O)cc21 [Example 1-359, 13-cyclohexyl-3-isopropyl-5-[2-(pyrrolidin-1-yl)ethyl]-6,7-dihydro-5H-benzo[5,6][1,4]diazepino[7,1-a]indole-10-carboxylic acid monohydrochloride] | < 100

From US20070049593A1 (priority 2004, published 2007)
